Laboratory results: patent US12336981B2, “Compounds and compositions for the inhibition of NAMPT” (Valo Health, Inc., priority 2010, dated 2025)
Where two headings read alike, the source gives them in different places.

How the values were obtained:
A2780 cells = assay: In-vitro cell proliferation assay (SRB), A2780 cells; type: cell-based; settings: Homo sapiens, A2780, 72 h, A2780 cells, 72 hours, read-out: A2780 IC50
How it was run: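 SRB read-out: 6% TCA fix 1 h at 4° C., stain, Tris solubilize, A570. Media-only background subtracted; % inhibition from two compound concentrations.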

NAMPT = target: T1, NAMPT (Homo sapiens, UniProt P43490); assay: Biochemical inhibition assay: NAMPT enzymatic reaction, NMN quantified by mass spectrometry; settings: NAMPT enzymatic reaction; read-out: Biochem IC50
T1 construct: His tag; host or cells: E. coli
T1 sequence (P43490 whole entry): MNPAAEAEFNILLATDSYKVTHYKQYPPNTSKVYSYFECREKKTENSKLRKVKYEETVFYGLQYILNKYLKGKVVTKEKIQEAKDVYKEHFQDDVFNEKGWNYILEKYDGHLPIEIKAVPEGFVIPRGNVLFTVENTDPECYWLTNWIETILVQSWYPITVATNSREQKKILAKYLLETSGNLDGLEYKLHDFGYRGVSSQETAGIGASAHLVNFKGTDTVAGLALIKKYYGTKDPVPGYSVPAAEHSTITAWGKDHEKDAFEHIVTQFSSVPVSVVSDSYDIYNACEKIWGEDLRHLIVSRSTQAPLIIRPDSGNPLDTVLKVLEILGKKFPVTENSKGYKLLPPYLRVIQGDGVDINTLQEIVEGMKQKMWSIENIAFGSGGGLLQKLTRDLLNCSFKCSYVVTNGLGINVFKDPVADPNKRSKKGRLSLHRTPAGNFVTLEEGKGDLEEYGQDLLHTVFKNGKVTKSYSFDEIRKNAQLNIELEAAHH
How it was run: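 Inhibition of E. coli-expressed His-tagged human NAMPT, measured as NMN formation by mass spectrometry after a 30 min room-temperature reaction containing 1 μM NAM, 100 μM PRPP and 2.5 mM ATP.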

Q: Which results are given for `O=C(NCc1ccc(S(=O)(=O)c2cc(Cl)cc(Cl)c2)cc1)c1ccc2nccn2c1` [N-({4-[(3,5-dichlorobenzene)sulfonyl]phenyl}methyl)imidazo[1,2-a]pyridine-6-carboxamide]?
A: IC50 (A2780 cells; SRB): 1.28 nM; IC50 (NAMPT): 5.49 nM

Q: Which results are given for `O=C(NCc1ccc(S(=O)(=O)c2cc(Cl)cc(Cl)c2)cc1)c1cc2ccncc2s1` [N-({4-[(3,5-dichlorobenzene)sulfonyl]phenyl}methyl)thieno[2,3-c]pyridine-2-carboxamide]?
A: IC50 (A2780 cells; SRB assay): 0.7 nM; IC50 (NAMPT): 6 nM

Q: What does the source list for `COc1cc(OC)cc(S(=O)(=O)c2ccc(CNC(=O)c3cnc4nccn4c3)cc2)c1` [N-({4-[(3,5-dimethoxybenzene)sulfonyl]phenyl}methyl)imidazo[1,2-a]pyrimidine-6-carboxamide]?
A: IC50 (A2780 cells; SRB): 1.6 nM; IC50 (NAMPT): 2.4 nM

Q: Which results are given for `Cc1cc(C)cc(S(=O)(=O)c2ccc(CNC(=O)c3cc4cnccc4[nH]3)cc2)c1` [N-({4-[(3,5-dimethylbenzene)sulfonyl]phenyl}methyl)-1H-pyrrolo[3,2-c]pyridine-2-carboxamide]?
A: IC50 (A2780 cells; SRB assay): 2 nM; IC50 (NAMPT): 9 nM

Q: `Cc1cc(C)cc(S(=O)(=O)c2ccc(CNC(=O)c3ccc4nccn4c3)cc2)c1` [N-({4-[(3,5-dimethylbenzene)sulfonyl]phenyl}methyl)imidazo[1,2-a]pyridine-6-carboxamide] was tested. Which IC50 (A2780 cells; SRB) did it give?
A: The IC50 was 3.17 nM.

Q: And the IC50 (NAMPT)?
A: The IC50 was 6.76 nM.

Q: For `Cc1cc(C)cc(S(=O)(=O)c2ccc(CNC(=O)c3cc4ccncc4s3)cc2)c1` [N-({4-[(3,5-dimethylbenzene)sulfonyl]phenyl}methyl)thieno[2,3-c]pyridine-2-carboxamide], which IC50 (A2780 cells; SRB assay) is on record?
A: The IC50 was 1.8 nM.

Q: What about the IC50 (NAMPT) of the same compound?
A: Its IC50 is 5 nM.

Q: How did the IC50 (A2780 cells; SRB assay) turn out when `CC(=O)c1cccc(S(=O)(=O)c2ccc(CNC(=O)c3cc4cnccc4[nH]3)cc2)c1` [N-({4-[(3-acetylbenzene)sulfonyl]phenyl}methyl)-1H-pyrrolo[3,2-c]pyridine-2-carboxamide] was run?
A: Its IC50 is 6 nM.

Q: What about the IC50 (NAMPT) of the same compound?
A: Its IC50 is 12 nM.

Q: How did the IC50 (A2780 cells; SRB) turn out when `CC(=O)c1cccc(S(=O)(=O)c2ccc(CNC(=O)c3cc4ccncc4o3)cc2)c1` [N-({4-[(3-acetylbenzene)sulfonyl]phenyl}methyl)furo[2,3-c]pyridine-2-carboxamide] was run?
A: Its IC50 is 8 nM.

Q: And the IC50 (NAMPT)?
A: Its IC50 is 17.6 nM.

Q: For `CC(=O)c1cccc(S(=O)(=O)c2ccc(CNC(=O)c3ccc4nccn4c3)cc2)c1` [N-({4-[(3-acetylbenzene)sulfonyl]phenyl}methyl)imidazo[1,2-a]pyridine-6-carboxamide], which IC50 (A2780 cells; SRB) is on record?
A: Its IC50 is 6.37 nM.

Q: And the IC50 (NAMPT)?
A: The IC50 was 12.5 nM.

Q: For `CC(=O)c1cccc(S(=O)(=O)c2ccc(CNC(=O)c3cc4ccncc4s3)cc2)c1` [N-({4-[(3-acetylbenzene)sulfonyl]phenyl}methyl)thieno[2,3-c]pyridine-2-carboxamide], which IC50 (A2780 cells; SRB assay) is on record?
A: Its IC50 is 2.6 nM.

Q: And the IC50 (NAMPT)?
A: The IC50 was 4 nM.

Q: Which results are given for `CCCCOc1cccc(S(=O)(=O)c2ccc(CNC(=O)c3cnc4[nH]ncc4c3)cc2)c1` [N-({4-[(3-butoxybenzene)sulfonyl]phenyl}methyl)-1H-pyrazolo[3,4-b]pyridine-5-carboxamide]?
A: IC50 (A2780 cells; SRB): 67.5 nM; IC50 (NAMPT): 38.4 nM

Q: For `CCCCOc1cccc(S(=O)(=O)c2ccc(CNC(=O)c3cc4cnccc4[nH]3)cc2)c1` [N-({4-[(3-butoxybenzene)sulfonyl]phenyl}methyl)-1H-pyrrolo[3,2-c]pyridine-2-carboxamide], which IC50 (A2780 cells; SRB) is on record?
A: Its IC50 is 21.6 nM.

Q: What about the IC50 (NAMPT) of the same compound?
A: Its IC50 is 11.5 nM.

Q: What does the source list for `CCCCOc1cccc(S(=O)(=O)c2ccc(CNC(=O)c3cc4ccncc4o3)cc2)c1` [N-({4-[(3-butoxybenzene)sulfonyl]phenyl}methyl)furo[2,3-c]pyridine-2-carboxamide]?
A: IC50 (A2780 cells; SRB): 69.5 nM; IC50 (NAMPT): 12.3 nM

Q: Which results are given for `Cc1c(Cl)cccc1S(=O)(=O)c1ccc(CNC(=O)c2cnc3[nH]ncc3c2)cc1` [N-({4-[(3-chloro-2-methylbenzene)sulfonyl]phenyl}methyl)-1H-pyrazolo[3,4-b]pyridine-5-carboxamide]?
A: IC50 (A2780 cells; SRB): 16.1 nM; IC50 (NAMPT): 36.9 nM

Q: How did the IC50 (A2780 cells; SRB) turn out when `COc1ccc(S(=O)(=O)c2ccc(CNC(=O)c3cc4ccncc4o3)cc2)cc1Cl` [N-({4-[(3-chloro-4-methoxybenzene)sulfonyl]phenyl}methyl)furo[2,3-c]pyridine-2-carboxamide] was run?
A: Its IC50 is 1.8 nM.

Q: And the IC50 (NAMPT)?
A: Its IC50 is 7.3 nM.

Q: How did the IC50 (A2780 cells; SRB) turn out when `COc1ccc(S(=O)(=O)c2ccc(CNC(=O)c3cc4ccncc4s3)cc2)cc1Cl` [N-({4-[(3-chloro-4-methoxybenzene)sulfonyl]phenyl}methyl)thieno[2,3-c]pyridine-2-carboxamide] was run?
A: The IC50 was 1.6 nM.

Q: And the IC50 (NAMPT)?
A: Its IC50 is 5 nM.

Q: For `CCCOc1ccc(S(=O)(=O)c2ccc(CNC(=O)c3cnc4[nH]ncc4c3)cc2)cc1Cl` [N-({4-[(3-chloro-4-propoxybenzene)sulfonyl]phenyl}methyl)-1H-pyrazolo[3,4-b]pyridine-5-carboxamide], which IC50 (A2780 cells; SRB) is on record?
A: Its IC50 is 9.58 nM.

Q: What about the IC50 (NAMPT) of the same compound?
A: The IC50 was 7.9 nM.

Q: Which IC50 (A2780 cells; SRB) does the source give for `COc1cc(Cl)cc(S(=O)(=O)c2ccc(CNC(=O)c3cc4cnccc4[nH]3)cc2)c1` [N-({4-[(3-chloro-5-methoxybenzene)sulfonyl]phenyl}methyl)-1H-pyrrolo[3,2-c]pyridine-2-carboxamide] here?
A: The IC50 was 2.5 nM.

Q: And the IC50 (NAMPT)?
A: The IC50 was 17 nM.

Q: What does the source list for `Cc1cc(Cl)cc(S(=O)(=O)c2ccc(CNC(=O)c3cc4ccncc4s3)cc2)c1` [N-({4-[(3-chloro-5-methylbenzene)sulfonyl]phenyl}methyl)thieno[2,3-c]pyridine-2-carboxamide]?
A: IC50 (A2780 cells; SRB): 1.6 nM; IC50 (NAMPT): 4.5 nM

Q: Which results are given for `O=C(NCc1ccc(S(=O)(=O)c2cccc(Cl)c2)cc1)c1cnc2[nH]ncc2c1` [N-({4-[(3-chlorobenzene)sulfonyl]phenyl}methyl)-1H-pyrazolo[3,4-b]pyridine-5-carboxamide]?
A: IC50 (A2780 cells; SRB): 6 nM; IC50 (NAMPT): 7 nM

Q: How did the IC50 (A2780 cells; SRB) turn out when `O=C(NCc1ccc(S(=O)(=O)c2cccc(Cl)c2)cc1)c1ccc2nccn2c1` [N-({4-[(3-chlorobenzene)sulfonyl]phenyl}methyl)imidazo[1,2-a]pyridine-6-carboxamide] was run?
A: The IC50 was 3.07 nM.

Q: What about the IC50 (NAMPT) of the same compound?
A: Its IC50 is 9.08 nM.

Q: For `O=C(NCc1ccc(S(=O)(=O)c2cccc(Cl)c2)cc1)c1cc2ccncc2s1` [N-({4-[(3-chlorobenzene)sulfonyl]phenyl}methyl)thieno[2,3-c]pyridine-2-carboxamide], which IC50 (A2780 cells; SRB assay) is on record?
A: The IC50 was 3 nM.

Q: And the IC50 (NAMPT)?
A: The IC50 was 5 nM.

Q: For `N#Cc1cccc(S(=O)(=O)c2ccc(CNC(=O)c3cnc4[nH]ncc4c3)cc2)c1` [N-({4-[(3-cyanobenzene)sulfonyl]phenyl}methyl)-1H-pyrazolo[3,4-b]pyridine-5-carboxamide], which IC50 (A2780 cells; SRB) is on record?
A: The IC50 was 9.54 nM.

Q: What about the IC50 (NAMPT) of the same compound?
A: The IC50 was 18.5 nM.

Q: `N#Cc1cccc(S(=O)(=O)c2ccc(CNC(=O)c3cc4ccncc4o3)cc2)c1` [N-({4-[(3-cyanobenzene)sulfonyl]phenyl}methyl)furo[2,3-c]pyridine-2-carboxamide] was tested. Which IC50 (A2780 cells; SRB) did it give?
A: The IC50 was 12.6 nM.

Q: And the IC50 (NAMPT)?
A: Its IC50 is 15.4 nM.

Q: Which results are given for `CCOc1cc(S(=O)(=O)c2ccc(CNC(=O)c3cnc4[nH]ncc4c3)cc2)ccc1F` [N-({4-[(3-ethoxy-4-fluorobenzene)sulfonyl]phenyl}methyl)-1H-pyrazolo[3,4-b]pyridine-5-carboxamide]?
A: IC50 (A2780 cells; SRB): 12 nM; IC50 (NAMPT): 26.1 nM

Q: For `CCOc1cc(S(=O)(=O)c2ccc(CNC(=O)c3cc4ccncc4o3)cc2)ccc1F` [N-({4-[(3-ethoxy-4-fluorobenzene)sulfonyl]phenyl}methyl)furo[2,3-c]pyridine-2-carboxamide], which IC50 (A2780 cells; SRB) is on record?
A: Its IC50 is 7.2 nM.

Q: And the IC50 (NAMPT)?
A: The IC50 was 11 nM.

Q: For `CCOc1cc(S(=O)(=O)c2ccc(CNC(=O)c3cnc4nccn4c3)cc2)ccc1F` [N-({4-[(3-ethoxy-4-fluorobenzene)sulfonyl]phenyl}methyl)imidazo[1,2-a]pyrimidine-6-carboxamide], which IC50 (A2780 cells; SRB) is on record?
A: The IC50 was 7.8 nM.

Q: And the IC50 (NAMPT)?
A: Its IC50 is 0.3 nM.

Q: With `CCOc1cccc(S(=O)(=O)c2ccc(CNC(=O)c3cc4cnccc4[nH]3)cc2)c1` [N-({4-[(3-ethoxybenzene)sulfonyl]phenyl}methyl)-1H-pyrrolo[3,2-c]pyridine-2-carboxamide] as the compound, how does the IC50 (A2780 cells; SRB) read?
A: The IC50 was 3.5 nM.

Q: What about the IC50 (NAMPT) of the same compound?
A: Its IC50 is 7.7 nM.

Q: Which results are given for `CCOc1cccc(S(=O)(=O)c2ccc(CNC(=O)c3cc4ccncc4o3)cc2)c1` [N-({4-[(3-ethoxybenzene)sulfonyl]phenyl}methyl)furo[2,3-c]pyridine-2-carboxamide]?
A: IC50 (A2780 cells; SRB): 11 nM; IC50 (NAMPT): 6.8 nM

Q: `CCc1cccc(S(=O)(=O)c2ccc(CNC(=O)c3cc4ccncc4o3)cc2)c1` [N-({4-[(3-ethylbenzene)sulfonyl]phenyl}methyl)furo[2,3-c]pyridine-2-carboxamide] was tested. Which IC50 (A2780 cells; SRB) did it give?
A: The IC50 was 6.5 nM.

Q: And the IC50 (NAMPT)?
A: The IC50 was 8.7 nM.

Q: Which IC50 (A2780 cells; SRB) does the source give for `CCc1cccc(S(=O)(=O)c2ccc(CNC(=O)c3ccc4nccn4c3)cc2)c1` [N-({4-[(3-ethylbenzene)sulfonyl]phenyl}methyl)imidazo[1,2-a]pyridine-6-carboxamide] here?
A: Its IC50 is 3.23 nM.

Q: What about the IC50 (NAMPT) of the same compound?
A: Its IC50 is 4.83 nM.

Q: With `CCc1cccc(S(=O)(=O)c2ccc(CNC(=O)c3cc4ccncc4s3)cc2)c1` [N-({4-[(3-ethylbenzene)sulfonyl]phenyl}methyl)thieno[2,3-c]pyridine-2-carboxamide] as the compound, how does the IC50 (A2780 cells; SRB assay) read?
A: Its IC50 is 2.7 nM.

Q: What about the IC50 (NAMPT) of the same compound?
A: Its IC50 is 6 nM.

Q: With `COc1c(F)cccc1S(=O)(=O)c1ccc(CNC(=O)c2cnc3[nH]ncc3c2)cc1` [N-({4-[(3-fluoro-2-methoxybenzene)sulfonyl]phenyl}methyl)-1H-pyrazolo[3,4-b]pyridine-5-carboxamide] as the compound, how does the IC50 (A2780 cells; SRB) read?
A: Its IC50 is 100 to 1000 nM.

Q: And the IC50 (NAMPT)?
A: Its IC50 is 121 nM.

Q: `COc1c(F)cccc1S(=O)(=O)c1ccc(CNC(=O)c2ccc3nccn3c2)cc1` [N-({4-[(3-fluoro-2-methoxybenzene)sulfonyl]phenyl}methyl)imidazo[1,2-a]pyridine-6-carboxamide] was tested. Which IC50 (A2780 cells; SRB) did it give?
A: Its IC50 is 65 nM.

Q: And the IC50 (NAMPT)?
A: Its IC50 is 76.9 nM.

Q: For `Cc1c(F)cccc1S(=O)(=O)c1ccc(CNC(=O)c2cnc3[nH]ncc3c2)cc1` [N-({4-[(3-fluoro-2-methylbenzene)sulfonyl]phenyl}methyl)-1H-pyrazolo[3,4-b]pyridine-5-carboxamide], which IC50 (A2780 cells; SRB) is on record?
A: The IC50 was 71.8 nM.

Q: And the IC50 (NAMPT)?
A: Its IC50 is 46.9 nM.

Q: How did the IC50 (A2780 cells; SRB) turn out when `COc1ccc(S(=O)(=O)c2ccc(CNC(=O)c3cnc4[nH]ncc4c3)cc2)cc1F` [N-({4-[(3-fluoro-4-methoxybenzene)sulfonyl]phenyl}methyl)-1H-pyrazolo[3,4-b]pyridine-5-carboxamide] was run?
A: Its IC50 is 6 nM.

Q: What about the IC50 (NAMPT) of the same compound?
A: The IC50 was 43 nM.
